Test results published in the supplement of paper PMC10307832.

Columns and labels:
Assay in all cases: relative viability (nuclei count vs DMSO), 5 days (fraction); higher = more cells survive
VX-11e + Palbociclib = compound: CC1=CN=C(N=C1C2=CNC(=C2)C(=O)N[C@H](CO)C3=CC(=CC=C3)Cl)NC4=C(C=C(C=C4)F)Cl [VX-11e] + CC(=O)c1c(C)c2cnc(Nc3ccc(N4CCNCC4)cn3)nc2n(C2CCCC2)c1=O [Palbociclib] (partner 0.5 µM)
Outline: (§1)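 Lung cancer cell lines, seeded in 1536-well plates, were treated the following day by pin tool with a single drug or with five library-drug doses (not always all listed) in √10 steps on top of a fixed anchor-drug dose. Cells were fixed and nuclei stained in one step after 5 days, and nuclei were counted. Relative viability is the nuclei count for treated wells divided by that for vehicle wells, reported as medians of duplicate plates.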

VX-11e + Pictilisib = compound: CC1=CN=C(N=C1C2=CNC(=C2)C(=O)N[C@H](CO)C3=CC(=CC=C3)Cl)NC4=C(C=C(C=C4)F)Cl [VX-11e] + CS(=O)(=O)N1CCN(Cc2cc3nc(-c4cccc5[nH]ncc45)nc(N4CCOCC4)c3s2)CC1 [Pictilisib] (partner 1 µM)
Outline: as §1

VX-11e + Phenformin = compound: CC1=CN=C(N=C1C2=CNC(=C2)C(=O)N[C@H](CO)C3=CC(=CC=C3)Cl)NC4=C(C=C(C=C4)F)Cl [VX-11e] + N=C(N)NC(=N)NCCc1ccccc1 [Phenformin] (partner 250 µM)
Outline: as §1

VX-11e + Decitabine = compound: CC1=CN=C(N=C1C2=CNC(=C2)C(=O)N[C@H](CO)C3=CC(=CC=C3)Cl)NC4=C(C=C(C=C4)F)Cl [VX-11e] + Nc1ncn([C@H]2C[C@H](O)[C@@H](CO)O2)c(=O)n1 [Decitabine] (partner 2 µM)
Outline: as §1

| Cell Line | relative viability (VX-11e + Palbociclib; first compound 0.04 µM) | relative viability (VX-11e + Palbociclib; first compound 0.1265 µM) | relative viability (VX-11e + Palbociclib; first compound 0.4 µM) | relative viability (VX-11e + Palbociclib; first compound 1.265 µM) | relative viability (VX-11e + Palbociclib; first compound 4 µM) | relative viability (VX-11e + Pictilisib; first compound 0.04 µM) | relative viability (VX-11e + Pictilisib; first compound 0.1265 µM) | relative viability (VX-11e + Pictilisib; first compound 0.4 µM) | relative viability (VX-11e + Pictilisib; first compound 1.265 µM) | relative viability (VX-11e + Pictilisib; first compound 4 µM) | relative viability (VX-11e + Phenformin; first compound 0.04 µM) | relative viability (VX-11e + Phenformin; first compound 0.1265 µM) | relative viability (VX-11e + Phenformin; first compound 0.4 µM) | relative viability (VX-11e + Phenformin; first compound 1.265 µM) | relative viability (VX-11e + Phenformin; first compound 4 µM) | relative viability (VX-11e + Decitabine; first compound 0.04 µM) | relative viability (VX-11e + Decitabine; first compound 0.1265 µM) | relative viability (VX-11e + Decitabine; first compound 0.4 µM) | relative viability (VX-11e + Decitabine; first compound 1.265 µM) | relative viability (VX-11e + Decitabine; first compound 4 µM) |
| --- | --- | --- | --- | --- | --- | --- | --- | --- | --- | --- | --- | --- | --- | --- | --- | --- | --- | --- | --- | --- |
| NCI-H2023 | 0.336 | 0.338 | 0.251 | 0.203 | 0.111 | 0.2 | 0.215 | 0.0991 | 0.151 | 0.119 | 0.393 | 0.404 | 0.291 | 0.322 | 0.191 | 0.207 | 0.222 | 0.222 | 0.256 | 0.228 |
| SK-LU-1 | 0.399 | 0.355 | 0.325 | 0.365 | 0.236 | 0.442 | 0.551 | 0.249 | 0.37 | 0.195 | 0.474 | 0.492 | – | 0.356 | 0.156 | 0.619 | 0.589 | 0.472 | 0.668 | 0.308 |
| SK-MES-1 | 0.326 | 0.329 | 0.355 | 0.327 | 0.244 | 0.337 | 0.31 | 0.316 | 0.249 | 0.168 | 0.693 | 0.64 | 0.694 | 0.618 | 0.368 | 0.341 | 0.384 | 0.363 | 0.4 | 0.272 |
| LCLC-97TM1 | 0.202 | 0.176 | 0.194 | – | 0.114 | 0.137 | 0.138 | – | 0.143 | 0.0889 | 0.525 | 0.393 | 0.347 | 0.516 | 0.382 | 0.259 | 0.209 | 0.221 | – | 0.171 |
| NCI-H2126 | 0.331 | 0.379 | 0.359 | 0.353 | 0.318 | – | 0.518 | 0.393 | 0.384 | 0.392 | 0.48 | 0.512 | – | 0.567 | 0.467 | 0.561 | 0.608 | 0.558 | 0.614 | 0.573 |
| BEN | 0.46 | 0.401 | 0.465 | 0.47 | 0.431 | 0.465 | 0.533 | 0.628 | 0.392 | 0.468 | – | 0.267 | 0.256 | 0.299 | 0.253 | 0.505 | 0.645 | 0.712 | 0.573 | 0.654 |
| LCLC-103H | 0.469 | 0.435 | 0.502 | 0.456 | 0.448 | 0.516 | 0.509 | 0.582 | 0.442 | 0.439 | 0.309 | 0.333 | 0.312 | 0.302 | 0.295 | 0.726 | 0.701 | 0.726 | 0.742 | 0.608 |
| NCI-H1651 | 0.526 | 0.493 | 0.492 | 0.449 | 0.498 | 0.494 | 0.519 | 0.504 | 0.548 | 0.536 | 0.347 | 0.301 | 0.23 | 0.314 | 0.305 | 0.445 | 0.633 | 0.541 | 0.497 | 0.59 |
| NCI-H1993 | – | 0.708 | 0.607 | 0.559 | 0.503 | – | 0.805 | – | 0.814 | 0.865 | 0.547 | 0.49 | 0.484 | 0.517 | 0.518 | – | 0.644 | 0.674 | 0.659 | 0.509 |
| NCI-H1975 | 0.543 | 0.411 | 0.169 | 0.391 | 0.17 | 0.237 | 0.278 | 0.2 | 0.222 | 0.202 | 0.443 | 0.362 | 0.261 | 0.393 | 0.199 | 0.42 | 0.388 | 0.336 | 0.364 | 0.226 |
| NCI-H727 | 0.589 | 0.358 | 0.602 | 0.559 | 0.412 | 0.243 | 0.451 | 0.314 | 0.238 | 0.173 | 0.439 | 0.475 | 0.451 | 0.359 | 0.353 | 0.599 | 1.07 | 0.72 | 0.638 | 0.421 |
| LC-2-ad | 0.48 | 0.42 | 0.54 | 0.46 | 0.409 | 0.398 | 0.432 | 0.349 | 0.247 | 0.163 | 0.525 | 0.461 | 0.395 | 0.372 | 0.467 | 0.798 | 0.776 | 0.703 | 0.872 | 0.654 |
| NCI-H2085 | 0.498 | 0.437 | 0.457 | 0.404 | 0.366 | 0.361 | 0.51 | 0.441 | 0.452 | 0.357 | 0.6 | 0.707 | 0.641 | 0.449 | 0.425 | 0.658 | 0.542 | 0.525 | 0.539 | 0.553 |
| NCI-H2347 | 0.475 | 0.405 | 0.481 | 0.398 | 0.379 | 0.813 | 0.662 | 0.491 | 0.36 | 0.298 | 0.462 | 0.488 | 0.206 | 0.43 | 0.211 | 0.604 | 0.554 | 0.504 | 0.534 | 0.661 |
| NCI-H1650 | 0.314 | 0.258 | 0.158 | 0.253 | 0.28 | 0.531 | 0.451 | 0.171 | 0.276 | 0.303 | 0.478 | 0.343 | – | 0.315 | 0.295 | 0.523 | 0.406 | 0.468 | 0.522 | 0.526 |
| HCC-78 | 0.481 | 0.359 | 0.466 | 0.501 | 0.431 | 0.23 | 0.185 | 0.31 | 0.189 | 0.224 | – | 0.75 | 0.857 | 0.672 | 0.738 | 0.721 | 0.698 | 0.676 | 0.775 | 0.786 |
